{"source": "patent US20150272955A1", "about": "“Triazolo[4,5-D]Pyrimidine Compounds For Treatment Of Abdominal Aortic Aneurysms” (AstraZeneca AB, priority 2007, published 2015)", "key": {"[1]": {"test_system": "experimental aortic aneurysms (decellularized guinea-pig aorta xenograft in rat aorta)", "assay": "AAA model: external aneurysmal diameter after xenograft implantation", "type": "in vivo", "text": "(§1) Experimental aortic aneurysms were induced by implanting a segment of sodium dodecyl sulfate-decellularized guinea-pig aorta (xenogenic matrix) in rat aortas (Allaire E. et al. (1994), J Vasc Surg 19:446-456). This AAA model is characterized by immuno-inflammatory injury of the xenogeneic extracellular matrix (Allaire E et al. (1997), Surgery 122:73-81; Allaire E et al. (1996), Transplantation 62:794-803). Briefly, 46 male Lewis rats (250 g) and 46 guinea-pigs (280 g) (Iffa Credo, Lyon, France) were housed according to the principles of Laboratory Animal Care formulated by the European Union. Animals were anaesthetized by intraperitoneal injection of pentobarbital (5 mg/100 g body weight). Guinea-pig infrarenal aortas (1.5 cm) were sampled and decellularized by sodium dodecyl sulfate treatment to obtain tubes of intact extracellular matrix, which were orthotopically transplanted into the aorta of Lewis rats with 10/0 nylon interrupted sutures (xenograft) (Allaire et al., 1997; Allaire et al., 1996). The initial diameter of the graft was measured in situ, immediately after unclamping, under a binocular microscope. After 24 h, rats were randomly assigned to two equal groups, treated with Compound (A) (10 mg/kg body weight twice daily by oral administration) or with the diluent of Compound (A) (1% carboxymethylcellulose/0.1% Tween-80 in water) for 10 days (D10, n=9 for each group) or 6 weeks (D42, n=14 for each group). At sacrifice, rats were deeply anesthetized, the graft diameter was measured again, and the aorta was dissected out and fixed in 4% paraformaldehyde. Aortic samples were embedded in paraffin and cut at 5 μm.\n(§2) Results are expressed as means±S.D. The percentage of diameter increase was calculated as follows: (diameter at harvest−diameter at grafting)×100/diameter at grafting. Comparisons between the two groups were made using the nonparametric Mann-Whitney U test (Statview, version 4.5). The frequency of aneurysms of large diameter in the different groups was analyzed by X^2 test. Simple regression analysis was used to test for correlations between various parameters. P<0.05 was considered significant."}, "[2]": {"test_system": "experimental aortic aneurysms (mural thrombus and aneurysmal wall)", "assay": "AAA model: histological and immunohistochemical analysis of aneurysm", "type": "in vivo, rat", "text": "as §1\nSections were stained with picro Sirius red to visualize collagen and fibrin and with orcein to visualize elastin. Immunohistochemistry was performed using anti-human α-actin (dilution 1:500, Dako, Trappes, France), anti-CD68 (macrophages, dilution 1:1000, Serotec, Cergy Saint-Christophe, France), anti-rat polymorphonuclear leukocytes (dilution 1:3000, Cedarlane, Ontario, Canada), anti-CD41 (integrin αIIb, platelets, dilution 1:50, Santa Cruz Biotechnologies) and anti-MMP-9 (dilution 1:50, Calbiochem, Darmstadt, Germany) as primary antibodies and a peroxidase Vector ABC kit for detection (Vector Labs, Burlingame, Calif., USA). Cells were counted with a grid in the microscope eyepiece and averaged in 4 symmetrical fields on the same slide. The size of the areas represented by thrombus, elastic fiber, AAA wall, and MMP-9- and CD41-positive staining were measured by morphometric analysis using Histolab software (Microvision Instruments, Evly, France). Thrombus areas were determined on Sirius red slides. The area occupied by positive staining was quantified by the color detecting mode of the computer program in the inner thrombus and outer wall.\nas §2"}, "[3]": {"details": "Day 42, 10 mg/kg twice daily oral"}}, "note": "Entries after “also recorded” stand apart in the source; their conditions may differ.", "data": [{"molecule": "CCCSc1nc(N[C@@H]2C[C@H]2c2ccc(F)c(F)c2)c2nnn([C@@H]3C[C@H](OCCO)[C@@H](O)[C@H]3O)c2n1", "note": "(relative stereo) [Compound (A), {1S-[1α,2α,3β(1S*,2R*),5β]}-3-(7-{[2-(3,4-difluorophenyl)cyclopropyl]amino}-5-(propylthio)-3H-1,2,3-triazolo[4,5-d]pyrimidin-3-yl)-5-(2-hydroxyethoxyl)cyclopentane-1,2-diol]", "values": [{"measurement": "increase in aneurysmal diameter between Days 10 and 42", "setting": "[1]; 10 mg/kg twice daily oral", "value": "no increase in aneurysmal diameter was observed"}, {"measurement": "percent increase in external diameter vs control", "setting": "[1]; [3]", "value": "significantly reduced"}, {"measurement": "incidence of larger aneurysms (diameter >4 mm)", "setting": "[1]; Day 42, X^2=11.6, P<0.001", "value": "predominated in the control group"}, {"measurement": "increase in external aneurysmal diameter", "setting": "[1]; male Lewis rats, 10 mg/kg twice daily oral, 10 days, n=9", "value": "197.3±52.8", "unit": "%"}, {"measurement": "mean external aneurysmal diameter", "setting": "[1]; male Lewis rats, 10 mg/kg twice daily oral, Day 10", "value": "2.22±0.56", "unit": "mm"}, {"measurement": "mean external aneurysmal diameter", "setting": "[1]; male Lewis rats, 10 mg/kg twice daily oral, Day 42, n=14", "value": "3.61±1.46", "unit": "mm"}, {"measurement": "thrombus area/wall area", "setting": "[2]; Day 10, 10 mg/kg twice daily oral", "value": "0.07±0.05"}, {"measurement": "thrombus area/wall area", "setting": "[2]; [3]", "value": "0.35±0.44"}, {"measurement": "CD41-positive area (platelet marker) within the thrombus", "setting": "[2]; Day 42, P=0.005 vs control", "value": "0.13±0.16"}, {"measurement": "MMP-9-positive area in the thrombus and the wall", "setting": "[2]; Day 42, immunostaining", "value": "markedly reduced"}, {"measurement": "slope (s) of correlation between thrombus area and aneurysm diameter", "setting": "[2]; Day 42, intragroup analysis", "value": 0.17}, {"measurement": "infiltration of PMNs into the mural thrombus", "setting": "[2]; Days 10 and 42", "value": "significantly inhibited"}, {"measurement": "infiltration of macrophages into the mural thrombus", "setting": "[2]; Days 10 and 42", "value": "significantly inhibited"}, {"measurement": "macrophage infiltration into the aneurysmal wall", "setting": "[2]; Days 10 and 42", "value": "did not reach statistical significance; also recorded: no change"}, {"measurement": "elastic fibers of the media (elastic lamellae area)", "setting": "[2]; Days 10 and 42, orcein staining", "value": "significant preservation"}, {"measurement": "SMC colonization of the wall", "setting": "[2]; after 10 or 42 days", "value": "did not affect"}, {"measurement": "density of SMCs within the thrombus", "setting": "[2]; treatment for 10 days, α-actin staining", "value": "did not modify"}, {"measurement": "SMC colonization of the thrombus", "setting": "[2]; treatment for 42 days, α-actin staining", "value": "significantly improved"}]}]}
